Peptide text beside a SMILES is read from it.
Legend:
[1] = tested on: intestinal enzymes such as carboxypeptidase and chymotrypsin; assay: hydrolysis in the gastrointestinal tract or blood of the consumer; assay type: in vivo; details: after drinking a sweetened beverage
α-chymotrypsin = α-chymotrypsin (Bos taurus, UniProt P00766); details: after 15 minutes at room temperature; 10:1 substrate:enzyme; 0.5 M ammonium acetate, pH 8

| Compound | does not hydrolyze cleave or break down in the gastrointestinal tract or blood [1] | hydrolysis by α-chymotrypsin (α-chymotrypsin) |
| --- | --- | --- |
| COC(=O)[C@H](Cc1ccccc1)NC(=O)C1(N)CC1C(=O)O (some centres unmarked) [Example XXXVIII, 1-Aminocyclopropane-2-carboxylic Acid-1-carboxyl Phenylalanine Methyl Ester] | at least 24 hours |  |
| COC(=O)[C@H](Cc1ccccc1)NC(=O)[C@@H](N)CC(=O)O [aspartame] (H-Asp-Phe-OMe) |  | hydrolyzed |

Source: patent EP0135429B1, “The synthesis of cyclopropane amino acids and peptides” (THE UNIVERSITY OF GEORGIA RESEARCH FOUNDATION, INC., priority 1983, dated 1992)
